Holding throughout (type): cell-based
Experiment [1] concerns the target T1, TGR4 (Homo sapiens, UniProt Q9H1C0).
T1 construct: expressed in transfected cells
The experiment can be described thus: Intracellular calcium ion mobilization activity in TGR4-expressing CHO cells (FLIPR). The settings on record: for EC50: TGR4-expressing CHO cells, 100% = reaction when 2 × 10^−6 M farnesyl 2-phosphate was added, read-out: Intracellular Ca^2+ mobilization activity (EC50); for concentration dependency of intracellular calcium ion mobilization activity: CHO-TGR4 (FIG. 16). The protocol:
Using TGR4 expression vector prepared in EXAMPLE 1, according to the publicly known method, the CHO cells stably expressing TGR4, which is designated CHO-TGR4, were prepared. CHO-TGR4 or CHO-mock cells, in which no receptor gene is introduced, was seeded to 96-well plate of Black plate, Clear bottom available from Costar at the concentration of 30,000 cells/well. After cultivation at 37° C. in the presence of 5% CO2 for overnight, the cells were used for assay. For washing buffer, Hank's balanced salt solution (HBSS, GibcoBRL) supplemented with 20 mM HEPES (pH7.4) and 2.5 mM probeneside (Sigma) was prepared. For sample buffer, the washing buffer supplemented with 0.1% bovine serum albumin (BSA, Sigma) was used. The washing buffer supplemented with 1% FBS, 4 μM Fluo 3-AM (Wako Pure Chemicals) and 0.04% Pluronic acid (Molecular Probes) was used as a dye loading solution. After discarding the medium, adding the dye loading solution and incubating the cells at 37° C. for 1 hour, using the plate washer, the cells were washed with the washing buffer. The cells were set to Fluorometric Imaging Plate Reader (FLIPR, Molecular Device) and the change of intracellular calcium ion concentration during three minutes after addition of sample was measured. FPP and LPA were added to sample to make a final concentration 2.5 μM each.
As well as the method described in EXAMPLE 7, using TGR4-expressing CHO cells and mock CHO cells, a study on concentration dependency of intracellular calcium ion mobilization activity by substances associated with various phospholipids compounds was made. For substances associated with various phospholipids compounds, geranylgeranyl 2-phosphate, farnesyl 2-phosphate, geranyl 2-phosphate, lysophosphatidic acid, sphingosine 1-phosphate, nordeoxycholic acid, deoxycholic acid, geranylgeranyol, farnesol were used.

The target in experiment [2] is T1, TGR4. Description: CRE-luciferase reporter gene assay in CHO cells transiently expressing TGR4. Particulars: 4 hours, TGR4 and Gi co-transfected with pCRE-Luc (FIG. 4). The procedure:
The expression vector plasmid pAK-TGR4 or pAK-Gi, which was prepared by inserting TGR4 cDNA or suppressive G protein a subunit Gi cDNA into pAKKO-111H, the expression plasmid vector for animal cells (the same plasmid vector as pAKKO-111H described in Biochem. Biophys. Acta by Hinuma, S. et al., Vol. 1219, pp. 251-259, 1994), and original pAKKO-111H, in which no specific gene was inserted, were transfected into the CHO cells by the following method.
Using these vectors, Escherichia coli JM109 was transformed. A colony obtained was isolated and cultured for preparation of plasmid with QIAGEN Plasmid Maxi Kit (Qiagen). Further, plasmid of pCRE-Luc (CLONTECH), in which luciferase gene is ligated as a reporter downstream cAMP response element (CRE), was prepared in a similar method. The CHO-mock cells, wherein the CHO (dhfr^−0 cells were transformed with pAKKO-111H, were seeded in 96-well black plate (Costar) at 40,000 cells/well and 100 μl of culture volume, and were cultured for overnight. For a culture on the plate, DMEM (Dulbecco's modified Eagle's medium, CibcoBRL) supplemented with nothing but 10% fetal bovine serum was used. In order to detect an increase of expression level of the reporter gene more clearly, the pAK-Gi was co-transfected with the pAK-TGR4. Each plasmid was added to 240 μl of Opti-MEM-I (GibcoBRL) at the ratio of 7:3:1 of pAK-TGR4:pAK-Gi:reporter plasmid pCRE-Luc. This solution was mixed with the same volume of solution wherein 10 μl of Lipofectamine 2000 was added to 240 μl of Opti-MEM-I to form a complex of liposome and plasmid according to the method described in the manual attached to Lipofectamine 2000. To culture of CHO-mock cells, 25 μl/well of the above-mentioned solution was added. After 4 hours at 37° C., a culture broth was replaced to an assay buffer (DMEM supplemented with 0.1% bovine serum albumin) to be serum-free for introduction of the plasmid. Then, these cells were cultured at 37° C. under the condition of 5% CO2 for overnight.
To the CHO-mock cells transfected as described above, geranylgeranyl 2-phosphate (GGPP, Sigma), farnesyl 2-phosphate (FPP, Sigma) and lysophosphatidic acid (LPA, Sigma) were added to the concentration of 1 μM, 0.1 μM, and […], respectively, and incubated at 37° C. under the condition of 5% CO2 for 4 hours. After discarding the supernatant, 50 μl of Picagene LT2.0, the substrate for assaying luciferase activity were added, and luminescence level of luciferase was measured using plate reader (ARVO sx multilabel counter, Wallac).

Experiment [3] deals with T1, TGR4. Description: cAMP production in TGR4-expressing CHO cells. Particulars: for cAMP production increasing activity dependent on concentration: CHO-TGR4 (FIG. 18); for level of cAMP production: final concentration 2 μM, 30 minutes, CHO-TGR4 versus CHO-mock (FIGS. 7 and 8). The procedure: The CHO-TGR4 prepared in EXAMPLE 2, or the CHO-mock cells, in which no receptor gene is introduced, were seeded on 96-well plate at the concentration of 25,000 cells/well. After cultivation at 37° C. in the presence of 5% CO2 for overnight, the cells were used for assay. For the sample buffer, HBSS supplemented with 0.1% BSA and 0.2 mM IBMX (Sigma) was used. The cells were washed twice with the sample buffer and pre-incubated at 37° C. for 30 minutes. Thereafter, the cells were also washed twice and incubated at 37° C. for 30 minutes after adding of sample. Farnesyl 2-phosphate or lysophophatidic acid was added to the sample to make a finalconcentration 2 μM. After incubation with the sample, a level of cAMP production was measured using cAMP Screen System (ABI).
As well as the method described in EXAMPLE 8, using TGR4-expressing CHO cells and mock CHO cells, a study on concentration dependency of cAMP production increasing activity by substances associated with various phospholipids compounds was made. […] For abbreviation of compounds, see EXAMPLE 9.

In the next experiment the target is T2, TGR4-GFP fusion protein (Homo sapiens, UniProt Q9H1C0).
T2 construct: expressed in transfected cells; host or cells: CHO-mock cells (CHO dhfr- transformed with pAKKO-111H), transient, Lipofectamine 2000
Description: Intracellular translocation of TGR4-GFP fusion protein expressed in CHO cells. Particulars: 10^−6 M, thirty minutes after addition. An excerpt: Expression plasmid wherein fusion protein that cDNA encoding Green Fluorescent protein (GFP) isolated from Aequorea coerulescens was ligated to the C-terminus of TGR4 by adjusting a translation frame, was constructed. As GFP cDNA, a fragment excised from GFP-expressing vector pQBI25 (Takara Shuzo) was used. The stop codon of TGR4 was modified to the recognition sequence of restriction enzyme NheI by the PCR method. GFP fragment was ligated to the terminus, and the obtained fragment was inserted into the expression vector pAKKO-111H. The thus obtained plasmid, which is an expression vector for fusion protein of TGR4 and GFP (hereinafter referred to as TGR4-GFP) was transfected to CHO-mock cells by the following method. The CHO-mock cells were suspended in growth medium (DMEM (Dulbecco's Modified Eagle Medium) (GIBCO BRL) supplemented with 10% fetal bovine serum (GIBCO BRL)), seeded on Lab-Tek II coverglass chamber (Nalgen Nunc), which has 4 chambers, at the concentration of 0.6×10^5 cells/chamber. After cultivation at 37° C. in the presence of 5% CO2 for overnight, transfection was carried out. For transfection, Lipofectamine™ 2000 Reagent (GIBCO BRL) was used. Firstly, 2 μl of Lipofectamine™ 2000 Reagent and 50 μl of OPTI-MEM-I (GIBCO BRL) were admixed and stood for 20 minutes at room temperature to form a complex of DNA with lipofectamine. […]

Experiment [4] addresses T1, TGR4. The experiment can be described thus: Activation of p44/42 MAP kinase in human TGR4-expressing CHO cells. The settings on record: 0.1 μM; TGR4-expressing CHO cells versus mock cells. The procedure: Human TGR4-expressing CHO cells and mock cells were seeded on 6-well plate at the concentration of 3×10^5 cells/well and cultured for overnight. For removal of serum, the medium was replaced with α-MEM including no nucleic acid supplemented with 0.1% BSA, and the cells were further incubated for overnight. Until just before assay, preincubation using the same medium for 2 hours was carried out. By adding 0.1 μM farnesyl 2-phosphate to the medium, the treatment was started. With respect to each given time, the medium was removed by aspiration and the reaction was terminated by addition of sumple buffer for SDS-PAGE. In accordance with conventional manner, SDS-PAGE was done and then the proteins were transferred to nitrocellulose membrane. Following the method described in the manual of Phospho Plus p44/42 MAPK (Thr202/Tyr204) Antibody Kit (Cell Signaling), detection of p44/42 MAP kinase was performed. […] Thus it became clear that the enzyme was activated.

These results are taken from patent US20040248208A1, “Screening method” (priority 2001, published 2004).

As to `C[C@H](CCC(=O)O)[C@H]1CC[C@H]2[C@@H]3CC[C@@H]4C[C@H](O)CC[C@]4(C)[C@H]3C[C@H](O)[C@]12C` [Deoxycholic acid], on TGR4 [1], the EC50 was greater than 2500 nM. On the same count and under the same terms, the same measure for `CC(C)=CCOP(=O)(O)OP(=O)(O)O` [Dimethylaryl 2-phosphate]: greater than 2500 nM. Regarding `CC(C)=CCCC(C)=CCCC(C)=CCO` [Farnesol], the EC50 on TGR4 [1] was greater than 2500 nM. For the compound `CC(C)=CCC/C(C)=C/CC/C(C)=C/COP(=O)(O)OP(=O)(O)O` [Farnesyl 2-phosphate, farnesyl 2-phosphate], at TGR4 [2] (0.1 μM), the luciferase activity entry is listed as “increase of luciferase activity was detected”. The luciferase activity entry at TGR4 [2] (1 μM) is reported as “increase of luciferase activity was detected”. Moreover, at TGR4 [3], the “cAMP production increasing activity dependent on concentration” value is given as “activity dependent on concentration was perceived” and the “level of cAMP production” value is given as “increased in the manner specific to CHO-TGR4”. At TGR4 [1], the “concentration dependency of intracellular calcium ion mobilization activity” value is “activity dependent on concentration was perceived” and the EC50 stood at 29 nM. Moreover, on TGR4 [1] (final concentration 2.5 μM, CHO-TGR4 versus CHO-mock (FIGS. 5 and 6)), the “intracellular calcium ion mobilization activity” value was “increased in the manner specific to CHO-TGR4”. For the same compound, the “translocation of TGR4-GFP fluorescence from cell membrane” value on TGR4-GFP fusion protein was “translocated to cytoplasm”. In addition, the “phosphorylation of p44/42 MAP kinase” value at TGR4 [4] was “phosphorylation of MAP kinase specific to human TGR-expressing CHO cells”.

Turning to `CC(C)=CCC/C(C)=C/COP(=O)(O)OP(=O)(O)O` [Geranyl 2-phosphate], the EC50 on TGR4 [1] was greater than 2500 nM.

Take `CC(C)=CCC/C(C)=C/CCC(=O)O` [Geranyl acetic acid]: on TGR4 [1], the EC50 was greater than 2500 nM. The same measure, in the same setting: the same measure for `CC(=O)CC/C=C(\C)CCC=C(C)C` [Geranyl acetone]: greater than 2500 nM; for `CC(C)=CCC/C(C)=C/CN` [Geranylamine]: greater than 2500 nM; for `CC(C)=CCC/C(C)=C/CCl` [Geranylchloride]: greater than 2500 nM.

As for `CC(C)=CCC/C(C)=C/CC/C(C)=C/CC/C(C)=C/COP(=O)(O)OP(=O)(O)O` [Geranylgeranyl 2-phosphate, geranylgeranyl 2-phosphate], the luciferase activity entry at TGR4 [2] (0.1 μM) is listed as “increase of luciferase activity was detected”. Moreover, at TGR4 [2] (1 μM), the luciferase activity entry is “increase of luciferase activity was detected”. Moreover, the “cAMP production increasing activity dependent on concentration” value on TGR4 [3] is “activity dependent on concentration was perceived”. In addition, at TGR4 [1], the “concentration dependency of intracellular calcium ion mobilization activity” value is “activity dependent on concentration was perceived” and the EC50 is 19 nM. Regarding `CC(C)=CCC/C(C)=C/CC/C(C)=C/CC/C(C)=C/CO` [Geranylgeranyol], the EC50 on TGR4 [1] was greater than 2500 nM. On to `CC(C)=CCC/C(C)=C/CO` [Geranyol], for which the EC50 at TGR4 [1] is greater than 2500 nM.

`C[C@H](CCC(=O)O)[C@H]1CC[C@H]2[C@@H]3CC[C@@H]4C[C@H](O)CC[C@]4(C)[C@H]3CC[C@]12C` [Lithocolic acid]: the EC50 on TGR4 [1] is greater than 2500 nM.

Take `C[C@H](CC(=O)O)[C@H]1CC[C@H]2[C@@H]3CC[C@@H]4C[C@H](O)CC[C@]4(C)[C@H]3C[C@H](O)[C@]12C` [Nordeoxycholic acid]: on TGR4 [1], the EC50 is greater than 2500 nM. As for `CCCCCCCCCCCCC/C=C/[C@@H](O)[C@@H](N)COP(=O)(O)O` [Sphingosine 1-phosphate], the EC50 on TGR4 [1] stood at 1500 nM. With lysophosphatidic acid, the luciferase activity entry on TGR4 [2] (1 μM) is recorded as “increase of luciferase activity was detected”. Further, the “level of cAMP production” value at TGR4 [3] is recorded as “increased in the manner specific to CHO-TGR4”.
